Data set [1] can be described thus: Binding studies of sensor with Fe2+ (stoichiometry, affinity, reversibility). The note with it: for binding constant: 1:1 sensor-Fe^2+ complex, H2O/THF pH 7.3 v/v 1:1. How it is done:
The binding stoichiometry between the sensor Rh6GD and Fe^2+ was investigated by absorption and fluorescence titrations first. The sensor, Rh6GD has an absorption band at ˜420 nm (FIG. 26) which is due to the transition from S0 to S1 states (A. Chakraborty, et al., N. Chem. Phys., 2006, 324, 733) of the dimethylaminocinnamaldehyde moiety. […] Similar titrations were performed and were monitored by fluorescence spectroscopy.
The binding constant was estimated by using the absorption titration results. The equations below were used to calculate the binding constant for 2:1 complexes following a reported procedure (M. Guo, et al., Dalton Trans., 2007, 102, 4951). S+2L ? SL2 (1) The complex apparent binding constant is given by
[formula] Fc is the fraction of L that formed a complex; the subscripts e and o stand for equilibrium and initial concentrations, respectively. Au, Am, and Ac are the absorbances of solutions of L (before any Fe^2+ was added), during the titration, and at saturation, respectively. The concentration of free Fe^2+ at equilibrium, [S]e, is found with the following identity: [S]e=[S]o−[SL2]e[=S]o−Fc[L]o (4) Finally, the integrated apparent binding constant equation is shown in equation (5).
Reversibility experiments were carried out by adding the metal chelator EDTA to the Rh6GD-Fe^2+ complex in H2O/THF (pH 7.3, v/v 4:1). […]
Besides metal-selectivity, the binding constant, which describes the strength of binding between the sensor and metal cations, is also an important factor to be considered in bio-imaging. […] Job's method was applied to study the binding stoichiometry between Rh101D and Fe^2+ and monitored by the absorbance at 585 nm.
The binding constants were estimated by using the fluorescence titration results (FIG. 38). […]
The binding stoichiometry and the affinity between the sensor NIRh-Fret and Fe^2+ were investigated by UV-vis absorption titration. […] The binding constant for the formation of this complex was determined to be 2.9×10^6 M^−1 using a reported procedure (C. A. Perez, et al., J. Inorg. Biochem., 2009, 103, 326). […]

A short description of data set [2]: Effect of pH on fluorescence of sensor and its Fe complex. The class given is physicochemical. The following applies: pH adjusted with HCl/NaOH.
The test system of data set [3] is cells in the culture experiments. Kind of data set: Cell permeability and toxicity in the culture experiments. The class given is cell-based. The note with it: for cell permeability: live cells in culture.

`CCN(CC)c1ccc2c(c1)OC1=C(CCC/C1=C\C=C1\N(C)c3ccccc3C1(C)C)C21c2ccccc2C(=O)N1/N=C\C=C\c1ccc(N(C)C)cc1` (centres unmarked) [NIRh-Fret, (E)-6′-(diethylamino)-2-(((1Z,2E)-3-(4-(dimethylamino)phenyl)allylidene)amino)-4′-(2-((E)-1,3,3-trimethylindolin-2-ylidene)ethylidene)-1′,2′,3′,4′-tetrahydrospiro[isoindoline-1,9′-xanthen]-3-one] returned a binding constant in data set [1] of 2.9e+06 M⁻¹. In addition, in data set [2], the “pH range over which sensor (and Fe complex) fluorescence is stable / working pH range” value is given as at least 4.5.
`CCNc1cc2c(cc1C)C1(c3cc(C)c(NCC)cc3O2)c2ccccc2C(=O)N1/N=C/C=C/c1ccc(N(C)C)cc1` [Rh6GD, 2-(((1E,2E)-3-(4-(dimethylamino)phenyl)allylidene)amino)-3′,6′-bis(ethylamino)-2′,7′-dimethylspiro[isoindoline-1,9′-xanthen]-3-one]: the apparent binding constant in data set [1] (2:1 sensor-Fe^2+ complex, absorption titration, H2O/THF pH 7.3 v/v 4:1) is 1.8×10^11 M^−2. In data set [2], the “pH range over which sensor (and Fe complex) fluorescence is stable / working pH range” value is on record as 9.3 to 4.5.
As to `CN(C)c1ccc(/C=C/C=N/N2C(=O)c3ccccc3C23c2cc4c5c(c2Oc2c3cc3c6c2CCCN6CCC3)CCCN5CCC4)cc1` [Rh101D], the cell permeability entry in data set [3] is reported as “cell permeable”. Moreover, the binding constant in data set [1] came out at 120000 M⁻¹. The “pH range over which sensor (and Fe complex) fluorescence is stable / working pH range” value in data set [2] fell in the range of 9.5 to 4.5.
As for `CCN(CC)c1ccc2c(c1)Oc1cc(N(CC)CC)ccc1C21c2ccccc2C(=O)N1CC/N=C(\C)c1cccc(C(C)=O)n1` [Rh-PK, (E)-2-(2-((1-(6-acetylpyridin-2-yl)ethylidene)amino)ethyl)-3′,6′-bis(diethylamino)spiro[isoindoline-1,9′-xanthen]-3-one], in data set [3] (culture experiments), the toxicity for cells entry was “non-toxic”. The cell permeability result in data set [3] is on record as “excellent cell permeability”. Besides, the figures for the “pH range over which sensor (and Fe complex) fluorescence is stable / working pH range” value in data set [2] and in data set [2] (listed as Rh-Pk) were 4 to 9 and 4-9, respectively.

The values above are taken from patent US11685741B2, “Fluorescent probes” (University of Massachusetts, priority 2017, dated 2023).
